The target in the series is ATP-dependent translocase ABCB1 (Homo sapiens, UniProt P08183). The series is described as follows: TP_TRANSPORTER: mRNA expression level of MDR1 was inversely related to the concentration/dose ratio in vivo, recipients of living-donor liver transplantation. The format is functional, organism-based.
Chain of ATP-dependent translocase ABCB1 (P08183 whole entry): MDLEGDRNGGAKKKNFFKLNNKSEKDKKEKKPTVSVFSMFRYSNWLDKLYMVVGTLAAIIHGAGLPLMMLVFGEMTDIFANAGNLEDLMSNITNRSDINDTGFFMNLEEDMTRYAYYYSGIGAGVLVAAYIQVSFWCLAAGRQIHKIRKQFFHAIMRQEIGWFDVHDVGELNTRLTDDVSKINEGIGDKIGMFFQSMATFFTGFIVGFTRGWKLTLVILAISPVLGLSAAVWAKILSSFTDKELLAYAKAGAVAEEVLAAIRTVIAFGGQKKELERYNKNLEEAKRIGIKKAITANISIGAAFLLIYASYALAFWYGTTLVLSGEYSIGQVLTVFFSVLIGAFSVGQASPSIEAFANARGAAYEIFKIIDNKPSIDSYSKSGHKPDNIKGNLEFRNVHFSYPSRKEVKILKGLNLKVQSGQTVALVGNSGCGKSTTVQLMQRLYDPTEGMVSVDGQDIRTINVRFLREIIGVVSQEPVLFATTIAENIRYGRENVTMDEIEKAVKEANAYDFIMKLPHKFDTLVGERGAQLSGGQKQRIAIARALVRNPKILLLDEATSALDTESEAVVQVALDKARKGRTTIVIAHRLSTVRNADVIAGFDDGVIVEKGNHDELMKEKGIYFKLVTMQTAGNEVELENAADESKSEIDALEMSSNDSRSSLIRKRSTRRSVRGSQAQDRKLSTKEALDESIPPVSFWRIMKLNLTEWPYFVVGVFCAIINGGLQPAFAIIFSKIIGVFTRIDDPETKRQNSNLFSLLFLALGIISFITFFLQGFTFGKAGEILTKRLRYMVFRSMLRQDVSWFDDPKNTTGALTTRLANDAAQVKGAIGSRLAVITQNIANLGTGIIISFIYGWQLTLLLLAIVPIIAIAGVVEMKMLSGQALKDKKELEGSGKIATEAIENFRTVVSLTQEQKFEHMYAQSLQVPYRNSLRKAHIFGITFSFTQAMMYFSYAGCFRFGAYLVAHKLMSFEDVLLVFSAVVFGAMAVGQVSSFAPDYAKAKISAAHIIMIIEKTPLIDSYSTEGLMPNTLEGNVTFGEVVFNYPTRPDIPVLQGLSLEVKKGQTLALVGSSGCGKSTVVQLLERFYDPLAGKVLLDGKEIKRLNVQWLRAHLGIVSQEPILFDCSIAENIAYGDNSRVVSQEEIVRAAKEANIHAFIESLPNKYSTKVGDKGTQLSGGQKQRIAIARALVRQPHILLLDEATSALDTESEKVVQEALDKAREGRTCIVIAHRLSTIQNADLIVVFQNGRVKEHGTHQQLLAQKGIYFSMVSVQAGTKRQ

Regarding `C=CC[C@@H]1/C=C(\C)C[C@H](C)C[C@H](OC)[C@H]2O[C@@](O)(C(=O)C(=O)N3CCCC[C@H]3C(=O)O[C@H](/C(C)=C/[C@@H]3CC[C@@H](O)[C@H](OC)C3)[C@H](C)[C@@H](O)CC1=O)[C@H](C)C[C@@H]2OC` [TACROLIMUS ANHYDROUS], the Activity result was “substrate [+]”.
